Results as given in ChEMBL document CHEMBL3507680, “University of Dundee, Gates Library screen for HepG2 cell viability”.

Experiment: Human HepG2 cell viability assay in 384 well format
Format: toxicity, cell-based
Set-up: dose 125 nL, time 70.5 hour; concentration not given beside the values
Conditions: HepG2 cells, read-out: Inhibition

| SMILES | cytotoxicity at 70.5 h [%] |
| --- | --- |
| CC(C)(NCc1cccc(O)c1)c1ccc2c(c1)OCO2 | -11.8 |
| Cc1noc(CCNC(=O)NCC(=O)NCc2ccccc2)n1 | -4.83 |
| Cc1cc(N2CCCC(O)(CN(C)C)C2)c2cc3c(cc2n1)OCO3 (configuration not stated) | 0.76 |
| O=C(C1CC1)N1CCCC(c2nc(O)cc(-c3ccncc3)n2)C1 (configuration not stated) | -0.584 |
| COCCNc1ccc(-c2noc([C@@H]3CCCN3)n2)cn1 | 6.15 |
| CCCC(=O)N1CCCN(C(=O)c2oc(C)nc2C)CC1 | -4.74 |
| Cc1n[nH]c(C)c1CC(=O)N1CCCN(C)C2(CCN(C)CC2)C1 | 23.3 |
| O=C1COC2(COCCN(Cc3cccnc3)C2)CN1c1ccoc1 (configuration not stated) | -9.07 |
| CCOC(=O)C1CN(S(C)(=O)=O)Cc2ncn(CC)c21 (configuration not stated) | -0.182 |
| Cc1ccc(N2CCO[C@H]3CN(Cc4ccoc4)C[C@H]32)nn1 | 6.75 |
| CN(C(=O)c1cccc(NCC(=O)O)c1)C(C1CC1)C1CC1 | -8.7 |
| CN(C)C(=O)COCc1nn(C)c2c1CCN(Cc1ccco1)C2 | -5.57 |
| CC(O)CN1CCN(Cc2coc(-c3ccc(Cl)cc3)n2)CC1 (configuration not stated) | -5.87 |
| N#Cc1cc(NC(=O)c2ccccn2)ccc1N1CCC(O)CC1 | -3.91 |
| CCc1noc(CS(=O)(=O)CC(=O)N2c3ccccc3CC2C)n1 (configuration not stated) | -12.6 |
| O=C(c1n[nH]c2c1CCC2)N1CCCC1c1nc(-c2ccccn2)no1 (configuration not stated) | -3.03 |
| O=C(c1ccoc1)N1CCC2(CC1)COC(COCc1ccccn1)C2 (configuration not stated) | 10.2 |
| O=C(c1ccc2[nH]ccc2c1)N1CC[C@@H]2CN(CC3CC3)CCO[C@@H]2C1 | -7.61 |
| CN(C)c1ncc(CNC(=O)Nc2ccc(C(F)(F)F)cc2)n1C | -2.76 |
| Cc1nc2cc(C3CCN(Cc4ccccc4F)C3)nn2c(O)c1C (configuration not stated) | -3.81 |
| CC(C)NC(=O)c1nn(C)c(NC(=O)Cc2ccccc2)c1F | -11.4 |

| SMILES | cytotoxicity at 70.5 h [%] |
| --- | --- |
| COc1cccc(CN2CCCC2c2c(C)nn(C)c2C)c1 (configuration not stated) | 3.04 |
| COCC(=O)NC[C@]12COC[C@H]1CN(c1ncc(F)cn1)C2 | -7.55 |
| Cc1nc(-c2ccccc2)sc1C(=O)NCCNc1ncccn1 | 1.41 |
| COc1cc(C(=O)N2CCCC2CC(=O)c2cnn(C)c2)ccc1F (configuration not stated) | 8.93 |
| CN1CC2(CCCN(CCOCc3ccccc3)C2)OC1=O (configuration not stated) | -3.02 |
| O=C(NCCc1ccsc1)Nc1cccnc1N1CCCC1 | 3.02 |
| COCCN1C[C@@H](C)[C@@]2(COCCN(C(=O)c3cnc(C)cn3)C2)C1 | -5.26 |
| O=C(NCCOc1ccccc1)C1NCCc2[nH]cnc21 (configuration not stated) | -7.83 |
| CC1CN(C)CCN1C(=O)c1cccn1Cc1cccs1 (configuration not stated) | -8.42 |
| CCOc1cccc(CNCc2ccc(NC(=O)NC(C)C)cc2)c1 | 4.86 |
| O=C(NCCn1ccnc1-c1cc2n(n1)CCNC2)c1ccncc1 | -5.81 |
| Cc1sc(NC(=O)CCC(=O)O)c(C(N)=O)c1-c1ccc(Cl)cc1Cl | -1.16 |
| OC(COCc1cccs1)Cn1cc(-n2cccc2)cn1 (configuration not stated) | 2.56 |
| CCn1ncc(CNc2[nH]cnc3nncc2-3)c1C | -13.8 |
| CNC(=O)C1(c2cnccn2)CCCN1C(=O)c1ccccc1F (configuration not stated) | -3.62 |
| CCN(CC)CCNC(=O)c1cnc(-c2ccccc2)nc1 | -7.78 |
| Cc1cc(C)n(C2CCCN(C(=O)CCOc3cccc(F)c3)C2)n1 (configuration not stated) | -2.12 |
| Cc1noc(C)c1C(=O)N1CCCC(c2c(C)c(=O)nc3n2CCC3)C1 (configuration not stated) | -9.85 |
| O=C(CCC(=O)N1CCC(Oc2ncccc2Br)CC1)c1ccccc1 | -9.39 |
| COc1ccc(OC)c(C2CC(=O)Nc3nc(N4CCOCC4)sc32)c1 (configuration not stated) | 4.11 |
| CN1CC(c2ccccc2)CC12CCN(C(=O)c1cncc(Cl)c1)CC2 (configuration not stated) | -8.59 |

| SMILES | cytotoxicity at 70.5 h [%] |
| --- | --- |
| CCn1nccc1S(=O)(=O)N1CCC2(CCCN(C(C)C)C2=O)C1 (configuration not stated) | -14.6 |
| CN(C)CC(=O)N1CCC2(CC1)CN(Cc1ccccc1)C2 | 30.2 |
| CC(C)(C)OC(=O)N1CCN(S(C)(=O)=O)C2(CCCCC2)C1 | -1.8 |
| OCCN1CCCC(c2nccnc2Oc2ccccc2)C1 (configuration not stated) | -6.87 |
| C[S+]([O-])c1nncn1CC(=O)c1cccc(Br)c1 (configuration not stated) | -3.69 |
| Cn1cnnc1C1CCCN(C(=O)c2cc(C3CC3)on2)C1 (configuration not stated) | -10.9 |
| c1cnc(N2CC3(CCN(Cc4cccnc4)C3)C2)nc1 | 9.91 |
| Cc1n[nH]c(C)c1-c1cc(-c2cc[nH]c2)nc(N)c1C#N | -12.3 |
| COc1c(C2CCCN2Cc2csc(C(C)C)n2)c(C)nn1C (configuration not stated) | 41 |
| CNC(=O)c1cccc(CCNc2ccccn2)c1 | -0.207 |
| CC(C)N(C)CCNC(=O)N1CCN(Cc2ccon2)CC1 | -5.35 |
| Cc1ccc(CN(C(=O)NCc2nnc3n2CCCCC3)C2CC2)o1 | -10.9 |
| O=S(=O)(Nc1cnc(N2CCCC2)nc1)c1ccc(OC(F)(F)F)cc1 | -4.76 |
| Cc1noc(C)c1-c1cncc(C2CCCN2Cc2ccncc2)n1 (configuration not stated) | -16.4 |
| Cc1ccc2c(c1)c(C)cc(=O)n2CC(=O)O | -2.86 |
| CC(C)C(=O)N1CCCC([C@@H]2C[C@H](C(F)F)n3ncnc3N2)C1 (some centres not stated) | -3.96 |
| CC(Cn1cccn1)NC(=O)Nc1ccc(F)cc1 (configuration not stated) | -4.1 |
| CC(NCCn1cccn1)c1ccc(F)cc1F (configuration not stated) | -2.25 |
| COC(=O)c1ccoc1CN(C)Cc1cc(OC)c(OC)cc1C | -12.1 |
| CCNc1cc2c(nn1)CCN(C(=O)c1ccc(-n3cnnc3)cc1)C2 | -0.933 |
| CC(C)COC(C)C(=O)N1CCN(S(C)(=O)=O)CC1 (configuration not stated) | -0.767 |

| SMILES | cytotoxicity at 70.5 h [%] |
| --- | --- |
| CO[C@H]1CN(C(C)C)C[C@@H]1NC(=O)Nc1ccc(C(F)(F)F)cc1 | -5.18 |
| Cc1ncsc1CNC(=O)N1CCN(Cc2ccccc2)CC1C (configuration not stated) | -9.74 |
| Cn1cc(N2CC3(CCN(Cc4ccsc4)CC3)OCC2=O)cn1 | 13.1 |
| Cc1nn(C)c(N(C)C)c1CNCc1ccccc1CO | -0.166 |
| c1ccc(CN2CCc3ncnc(C4CC4)c3CC2)cc1 | 26.7 |
| Cn1cc(CN2CCCC(n3c(=O)oc4ccccc43)C2)cn1 (configuration not stated) | -0.583 |
| O=C(c1ccc(=O)[nH]n1)N1CCNCC1c1ccccc1 (configuration not stated) | -2.98 |
| CC(C)n1cc(S(=O)(=O)N2CCSCC2)cn1 | -4.27 |
| Cc1ccccc1CN1CC[C@@]2(O)CCN(C(=O)C3CCC3)C[C@H]2C1 | 2.03 |
| CNC(=O)[C@@H]1C[C@@H](n2cc(-c3ccc(Cl)cc3)nn2)CN1 | 13.9 |
| COc1ccc(C)cc1Nc1nc2c(C)nn(C)c2c(=O)n1C | -5.48 |
| CCc1ncc(C(=O)N2CCn3c(CC)nnc3C2)s1 | -13.9 |
| CCCSCC(=O)Nc1ncn(CC(=O)N2CCCCCC2)n1 | -1.09 |
| Cc1cc(C)n(CC(C)NCCn2nc(C)c(Cl)c2C)n1 (configuration not stated) | 3.47 |
| CN(Cc1noc(C2CC2)n1)C1CCN(CCc2cnn(C)c2)C1 (configuration not stated) | 14.4 |
| CN1CC[C@H](N(C)Cc2ccccc2)C[C@H](O)C1 | -10.5 |
| CN1CCCN(C(=O)c2ccc3c(c2)nc(N2CCOCC2)n3C)CC1 | -8.33 |
| Cc1cccc(N(CCC(N)=O)CC(=O)NC2CCCC2)c1 | 18 |
| Cc1cnn(CC2CCCCN2C(=O)c2ccc(NC3CC3)nc2)c1 (configuration not stated) | -4.98 |
